Results taken from US10940139B2, “Compounds that interact with the Ras superfamily for the treatment of cancers, inflammatory diseases, rasopathies, and fibrotic disease” (Shy Therapeutics LLC, priority 2017, dated 2021).

How the values were obtained:
Experiment in all cases: Ras GTP binding domain inhibition assay (labeled GTP)
[1] = target: KRas G12C/Q61H double mutant (Homo sapiens (Human), UniProt P01116, G12C/Q61H); details: 20 μM compound; read-out: % Inhibition at 20 μM KRas G12C Q61H
How it was run: (§1)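 Inhibition of labeled GTP binding is measured on immobilized His-KRas protein in Tris buffer pH 7.5 with 1 mM MgCl2 and 1 mM DTT.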

[2] = target: KRas G12D/Q61H double mutant (Homo sapiens (Human), UniProt P01116, G12D/Q61H); details: 20 μM compound; read-out: % Inhibition at 20 μM KRas G12D Q61H
How it was run: as §1

KRas Q61H mutant = KRas Q61H mutant (Homo sapiens (Human), UniProt P01116, Q61H); details: 20 μM compound; read-out: % Inhibition at 20 μM KRas Q61H
How it was run: as §1

Sequence of KRas G12D/Q61H double mutant (P01116-2 other isoform, or with tags, fused parts or gaps G12D/Q61H): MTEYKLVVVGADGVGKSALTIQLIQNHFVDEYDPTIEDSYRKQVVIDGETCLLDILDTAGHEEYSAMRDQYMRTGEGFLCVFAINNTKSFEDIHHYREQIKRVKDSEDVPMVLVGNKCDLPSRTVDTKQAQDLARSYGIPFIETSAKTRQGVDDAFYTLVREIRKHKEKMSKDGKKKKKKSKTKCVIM
Sequence of KRas G12C/Q61H double mutant (P01116-2 other isoform, or with tags, fused parts or gaps G12C/Q61H): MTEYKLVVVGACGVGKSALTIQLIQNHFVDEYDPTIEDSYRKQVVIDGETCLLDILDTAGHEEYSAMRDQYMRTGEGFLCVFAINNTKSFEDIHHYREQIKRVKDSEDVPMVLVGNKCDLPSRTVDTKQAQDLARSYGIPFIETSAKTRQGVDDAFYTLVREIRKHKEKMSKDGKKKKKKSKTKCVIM
Sequence of KRas Q61H mutant (P01116-2 other isoform, or with tags, fused parts or gaps Q61H): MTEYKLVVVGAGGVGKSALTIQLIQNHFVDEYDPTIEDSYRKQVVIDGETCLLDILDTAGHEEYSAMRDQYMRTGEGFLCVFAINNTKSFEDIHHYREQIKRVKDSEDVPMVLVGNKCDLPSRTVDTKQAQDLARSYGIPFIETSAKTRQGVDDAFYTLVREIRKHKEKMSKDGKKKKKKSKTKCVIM

Compound	inhibition at 20 µM [1] [%]	inhibition at 20 µM [2] [%]	inhibition at 20 µM (KRas Q61H mutant) [%]
O=C(c1csc2c(O)nc(-c3ccccn3)nc12)N1CCNC(Cc2ccc(F)cc2)C1 (stereo not drawn) [drawing 2831]	51 to 75	51 to 75	51 to 75
Cc1sc2c(N)nc(-c3ccccn3)nc2c1-c1ccccc1 [drawing 2837]	1 to 25	25 to 50	1 to 25
Cc1ccc(OC2CCCC2)c(-c2csc3c(O)nc(-c4ccccn4)nc23)c1 [drawing 2844]	51 to 75	51 to 75	51 to 75
COc1ccc(CCNC(=O)c2csc3nc(-c4ccccn4)nc(N4CCS(=O)(=O)CC4)c23)cn1 [drawing 2853]	25 to 50	25 to 50	25 to 50
N#Cc1ccc2c(c1)CCCC2C(=O)Nc1ccnc(-c2ccccn2)n1 (stereo not drawn) [drawing 2855]	51 to 75	51 to 75	51 to 75
Oc1nc(-c2ccccn2)nc2c(-c3ccc(OC4CCCC4)cc3)csc12 [drawing 2863]	25 to 50	25 to 50	25 to 50
Oc1nc(-c2ccccn2)nc2c(-c3ccc(C4CCC4)cc3)csc12 [drawing 2865]	51 to 75	51 to 75	51 to 75
Oc1nc(-c2ccccn2)nc2c(-c3ccccc3OC3CCCCC3)csc12 [drawing 2866]	51 to 75	51 to 75	51 to 75
Oc1nc(-c2ccccn2)nc2c(-c3ccc(OC4CCOCC4)cc3)csc12 [drawing 2867]	25 to 50	25 to 50	25 to 50
COc1cc(C)c(-c2csc3c(O)nc(-c4ccccn4)nc23)cc1C [drawing 2869]	1 to 25	25 to 50	1 to 25
Oc1nc(-c2ccccn2)nc2c(-c3ccc(CN4CCOCC4)cc3)csc12 [drawing 2882]	25 to 50	25 to 50	25 to 50
Cc1sc2c(N)nc(-c3ccccn3)nc2c1Br [drawing 2893]	25 to 50	25 to 50	1 to 25
Nc1nc(-c2ccccn2)nc2scc(Br)c12 [drawing 2894]	25 to 50	25 to 50	51 to 75
COC(=O)c1csc2nc(-c3ccccn3)nc(N)c12 [drawing 2895]	25 to 50	25 to 50	25 to 50

More lines, now with the values ahead:

inhibition at 20 µM [1] [%]	inhibition at 20 µM [2] [%]	inhibition at 20 µM (KRas Q61H mutant) [%]	Compound
51 to 75	51 to 75	51 to 75	O=C(c1csc2c(O)nc(-c3ccccn3)nc12)N1CCNC(Cc2cccc(F)c2)C1 (stereo not drawn) [drawing 2832]
25 to 50	25 to 50	25 to 50	COc1ccnc(-c2nc(O)c3c(C(F)(F)F)csc3n2)c1 [drawing 2833]
1 to 25	1 to 25	1 to 25	Nc1nc(-c2ccccn2)nc2c(-c3ccccc3Cl)csc12 [drawing 2835]
51 to 75	51 to 75	76 to 100	O=C(c1cc2nc(-c3ccccn3)nc(O)c2s1)N1CCOC(c2ccccc2)C1 (stereo not drawn) [drawing 2842]
51 to 75	25 to 50	51 to 75	O=C(NCCc1cccnc1)c1cc2nc(-c3ccccn3)nc(O)c2s1 [drawing 2843]
51 to 75	51 to 75	51 to 75	CC(C)(C)c1ccc(-c2csc3c(O)nc(-c4ccccn4)nc23)cc1 [drawing 2847]
1 to 25	25 to 50	25 to 50	O=C(NCCc1cnc(O)nc1)c1csc2nc(-c3ccccn3)nc(N3CCS(=O)(=O)CC3)c12 [drawing 2854]
1 to 25	25 to 50	25 to 50	Oc1nc(-c2ccccn2)nc2c(-c3ccc(OC4CCOC4)cc3)csc12 (stereo not drawn) [drawing 2862]
25 to 50	25 to 50	25 to 50	Cc1cc(OC(F)F)ccc1-c1csc2c(O)nc(-c3ccccn3)nc12 [drawing 2878]
25 to 50	25 to 50	25 to 50	Oc1nc(-c2ccccn2)nc2c(-c3ccc(OC4CCCCC4)cc3)csc12 [drawing 2887]
1 to 25	25 to 50	25 to 50	Nc1nc(-c2ccccn2)nc2c(Br)csc12 [drawing 2892]
